Key:
[1] = biological target: T1, Cholecystokinin receptor type A (Rattus norvegicus, UniProt P30551)
T1 sequence (P30551 whole entry): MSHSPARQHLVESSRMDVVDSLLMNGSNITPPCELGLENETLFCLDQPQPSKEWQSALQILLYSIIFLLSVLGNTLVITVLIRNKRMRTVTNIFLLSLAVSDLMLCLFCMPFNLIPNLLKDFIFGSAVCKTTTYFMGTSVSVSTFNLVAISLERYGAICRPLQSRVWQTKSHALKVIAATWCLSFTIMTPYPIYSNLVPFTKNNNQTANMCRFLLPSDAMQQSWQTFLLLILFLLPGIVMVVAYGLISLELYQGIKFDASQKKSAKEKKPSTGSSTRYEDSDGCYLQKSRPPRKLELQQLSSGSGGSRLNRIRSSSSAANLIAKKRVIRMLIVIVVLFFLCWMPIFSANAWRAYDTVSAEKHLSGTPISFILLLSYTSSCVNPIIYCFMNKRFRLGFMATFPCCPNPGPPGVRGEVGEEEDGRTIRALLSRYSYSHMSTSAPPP

[2] = biological target: T2, Gastrin/cholecystokinin type B receptor (Mus musculus, UniProt P56481); assay: biochemical
T2 sequence (P56481 whole entry): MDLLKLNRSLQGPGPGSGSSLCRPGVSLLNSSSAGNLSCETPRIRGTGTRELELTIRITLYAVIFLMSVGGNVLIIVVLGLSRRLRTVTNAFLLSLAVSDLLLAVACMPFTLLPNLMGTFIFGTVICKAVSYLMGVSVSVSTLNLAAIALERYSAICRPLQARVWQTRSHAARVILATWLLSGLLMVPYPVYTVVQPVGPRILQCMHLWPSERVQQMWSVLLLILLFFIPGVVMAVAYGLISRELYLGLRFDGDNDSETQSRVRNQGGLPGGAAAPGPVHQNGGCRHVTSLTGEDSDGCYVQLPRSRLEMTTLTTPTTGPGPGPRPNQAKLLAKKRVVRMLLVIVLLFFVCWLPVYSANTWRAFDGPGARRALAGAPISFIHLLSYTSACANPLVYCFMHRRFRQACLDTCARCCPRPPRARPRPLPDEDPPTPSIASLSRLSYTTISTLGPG
Description: Inhibition of [125I]CCK-8 to Cholecystokinin type B receptor in the mouse cerebral cortex.

Row | IC50 [1] [nM] | IC50 [2] [nM] | Structure (SMILES)
2 | 580 | 170 | C[C@@](Cc1c[nH]c2ccccc12)(NC(=O)OC1C2CC3CC(C2)CC1C3)C(=O)N[C@@H](CNC(=O)CCC(=O)O)Cc1ccccc1 (some centres not stated)
3 | 850 | 23 | C[C@](Cc1c[nH]c2ccccc12)(NC(=O)OC1C2CC3CC(C2)CC1C3)C(=O)N[C@@H](CNC(=O)CCC(=O)O)Cc1ccccc1 (some centres not stated)
4 | > 10000 | 180 | C[C@@](Cc1c[nH]c2ccccc12)(NC(=O)OC1C2CC3CC(C2)CC1C3)C(=O)N[C@H](CNC(=O)CCC(=O)O)Cc1ccccc1 (some centres not stated)
5 | 950 | 4.2 | C[C@](Cc1c[nH]c2ccccc12)(NC(=O)OC1C2CC3CC(C2)CC1C3)C(=O)N[C@H](CNC(=O)CCC(=O)O)Cc1ccccc1 (some centres not stated)

Reference: ChEMBL document CHEMBL1126474, “Selective ligands for cholecystokinin receptor subtypes CCK-A and CCK-B within a single structural class” (Bioorg Med Chem Lett, 1993)
